In patent US10294202B2, “Pyrrolidinones as herbicides” (FMC Corporation, priority 2013, dated 2019):

Assays:
Experiment in all cases: Test D pre-/postemergence herbicide test
[1] = test system: wheat, spring; type: in vivo, Triticum aestivum; conditions: for Plant response rating: Postemergence, Wheat, Spring, scale 0 to 100; for Plant response rating, Wheat, Spring: Preemergence, scale 0 to 100 (0 no effect, 100 complete control)
Text: (§1) Seeds of plant species selected from bluegrass (annual bluegrass, Poa annua), blackgrass (Alopecurus myosuroides), canarygrass (littleseed canarygrass, Phalaris minor), chickweed (common chickweed, Stellaria media), galium (catchweed bedstraw, Galium aparine), bromegrass, downy (downy bromegrass, Bromus tectorum), field poppy (Papaver rhoeas), field violet (Viola arvensis), foxtail, green (green foxtail, Setaria viridis), deadnettle (henbit deadnettle, Lamium amplexicaule), ryegrass, Italian (Italian ryegrass, Lolium multiflorum), kochia (Kochia scoparia), lambsquarters (Chenopodium album), oilseed rape (Brassica napus), pigweed (Amaranthus retroflexus), chamomile (scentless chamomile, Matricaria inodora), Russian thistle (Salsola kali), speedwell (bird's-eye speedwell, Veronica persica), barley, spring (spring barley, Hordeum vulgare), wheat, spring (spring wheat, Triticum aestivum), buckwheat, wild (wild buckwheat, Polygonum convolvulus), mustard, wild (wild mustard, Sinapis arvensis), oat, wild (wild oat, Avena fatua), radish, wild (wild radish, Raphanus raphanistrum), […]), barley, winter (winter barley, Hordeum vulgare), and wheat, winter (winter wheat, Triticum aestivum) were planted into a silt loam soil and treated preemergence with test chemicals formulated in a non-phytotoxic solvent mixture which included a surfactant. At the same time, these species were planted in pots containing Redi-Earth® planting medium (Scotts Company, 14111 Scottslawn Road, Marysville, Ohio 43041) comprising spaghnum peat moss, vermiculite, wetting agent and starter nutrients and treated with postemergence applications of the test chemicals formulated in the same manner. Plants ranged in height from 2 to 18 cm (1- to 4-leaf stage). Treated plants and controls were maintained in a controlled growth environment for 7 to 21 days after which time all species were compared to controls and visually evaluated. Plant response ratings, summarized in Table D, are based on a scale of 0 to 100 where 0 is no effect and 100 is complete control. A dash (-) response means no test result.

[2] = test system: wheat, winter; type: in vivo, Triticum aestivum; conditions: for Plant response rating: Postemergence, Wheat, Winter, scale 0 to 100; for Plant response rating, Wheat, Winter: Preemergence, scale 0 to 100 (0 no effect, 100 complete control)
Text: as §1

[3] = test system: radish, wild; type: in vivo, Raphanus raphanistrum; conditions: for Plant response rating: Postemergence, Radish, Wild, scale 0 to 100; for Plant response rating, Radish, Wild: Preemergence, scale 0 to 100 (0 no effect, 100 complete control)
Text: as §1

[4] = test system: field violet; type: in vivo, Viola arvensis; conditions: for Plant response rating: Field Violet, scale 0 to 100; for Plant response rating, Field Violet: scale 0 to 100 (0 no effect, 100 complete control)
Text: as §1

[5] = test system: foxtail, green; type: in vivo, Setaria viridis; conditions: for Plant response rating: Foxtail, Green, scale 0 to 100; for Plant response rating, Foxtail, Green: scale 0 to 100 (0 no effect, 100 complete control)
Text: as §1

[6] = test system: bromegrass, downy; type: in vivo, Bromus tectorum; conditions: for Plant response rating: Bromegrass, Downy, scale 0 to 100; for Plant response rating, Bromegrass, Downy: scale 0 to 100 (0 no effect, 100 complete control)
Text: as §1

[7] = test system: Russian thistle; type: in vivo, Salsola kali; conditions: for Plant response rating: Postemergence, Russian Thistle, scale 0 to 100; for Plant response rating, Russian Thistle: Preemergence, scale 0 to 100 (0 no effect, 100 complete control)
Text: as §1

[8] = test system: chickweed; type: in vivo, Stellaria media; conditions: for Plant response rating: Chickweed, scale 0 to 100; for Plant response rating, Chickweed: scale 0 to 100 (0 no effect, 100 complete control)
Text: as §1

Structure (SMILES): O=C1NCC(c2ccc(F)c(F)c2)C1C(=O)Nc1cccc(F)c1 (racemic) [Compound 12]
- Plant response rating ([1]; 16 g ai/ha): 0
- Plant response rating ([1]; 31 g ai/ha): 0
- Plant response rating ([1]; 62 g ai/ha): 0
- Plant response rating ([1]; 125 g ai/ha): 0
- Plant response rating ([1]; 250 g ai/ha): 0
- Plant response rating, Wheat, Spring ([1]; 31 g ai/ha): 0
- Plant response rating, Wheat, Spring ([1]; 62 g ai/ha): 0
- Plant response rating, Wheat, Spring ([1]; 125 g ai/ha): 0
- Plant response rating, Wheat, Spring ([1]; 250 g ai/ha): 0
- Plant response rating, Wheat, Spring ([1]; 16 g ai/ha): 0
- Plant response rating ([2]; 16 g ai/ha): 0
- Plant response rating ([2]; 31 g ai/ha): 0
- Plant response rating ([2]; 62 g ai/ha): 0
- Plant response rating ([2]; 125 g ai/ha): 0
- Plant response rating ([2]; 250 g ai/ha): 0
- Plant response rating, Wheat, Winter ([2]; 31 g ai/ha): 0
- Plant response rating, Wheat, Winter ([2]; 62 g ai/ha): 0
- Plant response rating, Wheat, Winter ([2]; 125 g ai/ha): 0
- Plant response rating, Wheat, Winter ([2]; 250 g ai/ha): 0
- Plant response rating, Wheat, Winter ([2]; 16 g ai/ha): 0
- Plant response rating ([3]; 16 g ai/ha): 0
- Plant response rating ([3]; 31 g ai/ha): 0
- Plant response rating ([3]; 62 g ai/ha): 20
- Plant response rating ([3]; 125 g ai/ha): 25
- Plant response rating ([3]; 250 g ai/ha): 25
- Plant response rating, Radish, Wild ([3]; 16 g ai/ha): 0
- Plant response rating ([4]; Postemergence, 16 g ai/ha): 0
- Plant response rating ([4]; Postemergence, 31 g ai/ha): 0
- Plant response rating ([4]; Postemergence, 62 g ai/ha): 30
- Plant response rating ([4]; Postemergence, 125 g ai/ha): 35
- Plant response rating ([4]; Postemergence, 250 g ai/ha): 40
- Plant response rating, Field Violet ([4]; Preemergence, 31 g ai/ha): 0
- Plant response rating, Field Violet ([4]; Preemergence, 62 g ai/ha): 0
- Plant response rating, Field Violet ([4]; Preemergence, 16 g ai/ha): 0
- Plant response rating ([4]; Preemergence, 125 g ai/ha): 0
- Plant response rating ([4]; Preemergence, 250 g ai/ha): 0
- Plant response rating ([5]; Postemergence, 16 g ai/ha): 0
- Plant response rating ([5]; Postemergence, 31 g ai/ha): 0
- Plant response rating ([5]; Postemergence, 62 g ai/ha): 10
- Plant response rating ([5]; Postemergence, 125 g ai/ha): 20
- Plant response rating ([5]; Postemergence, 250 g ai/ha): 25
- Plant response rating, Foxtail, Green ([5]; Preemergence, 31 g ai/ha): 0
- Plant response rating, Foxtail, Green ([5]; Preemergence, 62 g ai/ha): 0
- Plant response rating, Foxtail, Green ([5]; Preemergence, 16 g ai/ha): 0
- Plant response rating ([5]; Preemergence, 125 g ai/ha): 0
- Plant response rating ([5]; Preemergence, 250 g ai/ha): 0
- Plant response rating ([6]; Postemergence, 16 g ai/ha): 0
- Plant response rating ([6]; Postemergence, 31 g ai/ha): 0
- Plant response rating ([6]; Postemergence, 62 g ai/ha): 0
- Plant response rating ([6]; Postemergence, 125 g ai/ha): 0
- Plant response rating ([6]; Postemergence, 250 g ai/ha): 5
- Plant response rating, Bromegrass, Downy ([6]; Preemergence, 31 g ai/ha): 0
- Plant response rating, Bromegrass, Downy ([6]; Preemergence, 62 g ai/ha): 0
- Plant response rating, Bromegrass, Downy ([6]; Preemergence, 16 g ai/ha): 0
- Plant response rating ([6]; Preemergence, 125 g ai/ha): 0
- Plant response rating ([6]; Preemergence, 250 g ai/ha): 10
- Plant response rating ([7]; 16 g ai/ha): 0
- Plant response rating ([7]; 31 g ai/ha): 0
- Plant response rating ([7]; 62 g ai/ha): 20
- Plant response rating ([7]; 125 g ai/ha): 30
- Plant response rating ([7]; 250 g ai/ha): 80
- Plant response rating, Russian Thistle ([7]; 31 g ai/ha): 0
- Plant response rating, Russian Thistle ([7]; 62 g ai/ha): 0
- Plant response rating, Russian Thistle ([7]; 125 g ai/ha): 0
- Plant response rating, Russian Thistle ([7]; 250 g ai/ha): 0
- Plant response rating, Russian Thistle ([7]; 16 g ai/ha): 0
- Plant response rating ([8]; Postemergence, 16 g ai/ha): 0
- Plant response rating ([8]; Postemergence, 31 g ai/ha): 0
- Plant response rating ([8]; Postemergence, 62 g ai/ha): 0
- Plant response rating ([8]; Postemergence, 125 g ai/ha): 20
- Plant response rating ([8]; Postemergence, 250 g ai/ha): 30
- Plant response rating, Chickweed ([8]; Preemergence, 62 g ai/ha): 0
- Plant response rating ([8]; Preemergence, 125 g ai/ha): 0
- Plant response rating ([8]; Preemergence, 250 g ai/ha): 0

Structure (SMILES): O=C1NCC(c2cccc(C(F)(F)F)c2)C1C(=O)Nc1ccc(F)cc1F (racemic) [Compound 207]
- Plant response rating, Wheat, Spring ([1]; 31 g ai/ha): 5
- Plant response rating, Wheat, Spring ([1]; 62 g ai/ha): 10
- Plant response rating, Wheat, Spring ([1]; 125 g ai/ha): 10
- Plant response rating, Wheat, Spring ([1]; 250 g ai/ha): 10
- Plant response rating, Wheat, Winter ([2]; 31 g ai/ha): 0
- Plant response rating, Wheat, Winter ([2]; 62 g ai/ha): 15
- Plant response rating, Wheat, Winter ([2]; 125 g ai/ha): 10
- Plant response rating, Wheat, Winter ([2]; 250 g ai/ha): 20
- Plant response rating, Radish, Wild ([3]; 31 g ai/ha): 15
- Plant response rating, Radish, Wild ([3]; 62 g ai/ha): 10
- Plant response rating, Radish, Wild ([3]; 125 g ai/ha): 15
- Plant response rating, Radish, Wild ([3]; 250 g ai/ha): 15
- Plant response rating, Field Violet ([4]; Preemergence, 31 g ai/ha): 10
- Plant response rating, Field Violet ([4]; Preemergence, 62 g ai/ha): 15
- Plant response rating, Field Violet ([4]; Preemergence, 125 g ai/ha): 35
- Plant response rating ([4]; Preemergence, 250 g ai/ha): 35
- Plant response rating, Foxtail, Green ([5]; Preemergence, 31 g ai/ha): 15
- Plant response rating, Foxtail, Green ([5]; Preemergence, 62 g ai/ha): 60
- Plant response rating, Foxtail, Green ([5]; Preemergence, 125 g ai/ha): 75
- Plant response rating ([5]; Preemergence, 250 g ai/ha): 90
- Plant response rating, Bromegrass, Downy ([6]; Preemergence, 31 g ai/ha): 0
- Plant response rating, Bromegrass, Downy ([6]; Preemergence, 62 g ai/ha): 15
- Plant response rating, Bromegrass, Downy ([6]; Preemergence, 125 g ai/ha): 15
- Plant response rating ([6]; Preemergence, 250 g ai/ha): 15
- Plant response rating, Chickweed ([8]; Preemergence, 31 g ai/ha): 60
- Plant response rating, Chickweed ([8]; Preemergence, 62 g ai/ha): 60
- Plant response rating, Chickweed ([8]; Preemergence, 125 g ai/ha): 70
- Plant response rating ([8]; Preemergence, 250 g ai/ha): 100

Structure (SMILES): O=C1NCC(c2cccc(C(F)(F)F)c2)C1C(=O)Nc1cccc(F)c1F (stereo not shown) [Compound 241]
- Plant response rating, Wheat, Spring ([1]; 31 g ai/ha): 0
- Plant response rating, Wheat, Spring ([1]; 62 g ai/ha): 0
- Plant response rating, Wheat, Spring ([1]; 125 g ai/ha): 25
- Plant response rating, Wheat, Spring ([1]; 250 g ai/ha): 40
- Plant response rating, Wheat, Winter ([2]; 31 g ai/ha): 0
- Plant response rating, Wheat, Winter ([2]; 62 g ai/ha): 5
- Plant response rating, Wheat, Winter ([2]; 125 g ai/ha): 10
- Plant response rating, Wheat, Winter ([2]; 250 g ai/ha): 25
- Plant response rating, Radish, Wild ([3]; 31 g ai/ha): 0
- Plant response rating, Radish, Wild ([3]; 62 g ai/ha): 0
- Plant response rating, Radish, Wild ([3]; 125 g ai/ha): 0
- Plant response rating, Radish, Wild ([3]; 250 g ai/ha): 0
- Plant response rating, Field Violet ([4]; Preemergence, 31 g ai/ha): 15
- Plant response rating, Field Violet ([4]; Preemergence, 62 g ai/ha): 15
- Plant response rating, Field Violet ([4]; Preemergence, 125 g ai/ha): 20
- Plant response rating ([4]; Preemergence, 250 g ai/ha): 30
- Plant response rating, Foxtail, Green ([5]; Preemergence, 31 g ai/ha): 35
- Plant response rating, Foxtail, Green ([5]; Preemergence, 62 g ai/ha): 90
- Plant response rating, Foxtail, Green ([5]; Preemergence, 125 g ai/ha): 90
- Plant response rating ([5]; Preemergence, 250 g ai/ha): 90
- Plant response rating, Bromegrass, Downy ([6]; Preemergence, 31 g ai/ha): 0
- Plant response rating, Bromegrass, Downy ([6]; Preemergence, 62 g ai/ha): 15
- Plant response rating, Bromegrass, Downy ([6]; Preemergence, 125 g ai/ha): 15
- Plant response rating ([6]; Preemergence, 250 g ai/ha): 60
- Plant response rating, Chickweed ([8]; Preemergence, 31 g ai/ha): 90
- Plant response rating, Chickweed ([8]; Preemergence, 62 g ai/ha): 80
- Plant response rating, Chickweed ([8]; Preemergence, 125 g ai/ha): 95
- Plant response rating ([8]; Preemergence, 250 g ai/ha): 100
